From PubChem BioAssay (NCI)
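Cells were grown in 96-well plates and exposed to each compound for 48 hours at five concentrations; endpoints were interpolated linearly between bracketing concentrations, or set to the highest concentration if not reached. GI50: concentration for 50% inhibition of growth. Definition used: TGI = concentration required for complete inhibition of growth.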

Columns and labels:
Experiment in all cases: growth of human tumour cells (NCI), 48 h
K-562 leukemia = system: K-562 leukemia
M14 melanoma = system: M14 melanoma
MALME-3M melanoma = system: MALME-3M melanoma
NCI-H226 lung = system: NCI-H226 lung
NCI-H23 lung = system: NCI-H23 lung
NCI-H522 lung = system: NCI-H522 lung
SF-268 CNS = system: SF-268 CNS
SK-MEL-5 melanoma = system: SK-MEL-5 melanoma
SK-OV-3 ovarian = system: SK-OV-3 ovarian
SR leukemia = system: SR leukemia

Q: How did the GI50 (K-562 leukemia) turn out when `CN(C)c1cc2c(cc1Sc1nc3c(N)nccc3n1CCNCC(C)(C)C)OCO2` was run?
A: 0.319 µM

Q: What about the TGI (K-562 leukemia) of the same compound?
A: 11 µM

Q: And the GI50 (M14 melanoma)?
A: 0.532 µM

Q: What about the TGI (M14 melanoma) of the same compound?
A: 15.9 µM

Q: What about the GI50 (MALME-3M melanoma) of the same compound?
A: 0.428 µM

Q: What about the TGI (MALME-3M melanoma) of the same compound?
A: 4.91 µM

Q: What about the GI50 (NCI-H226 lung) of the same compound?
A: 1.69 µM

Q: What about the TGI (NCI-H226 lung) of the same compound?
A: 19.7 µM

Q: What about the GI50 (NCI-H23 lung) of the same compound?
A: 0.448 µM

Q: What about the TGI (NCI-H23 lung) of the same compound?
A: 22.8 µM

Q: What about the GI50 (NCI-H522 lung) of the same compound?
A: 0.453 µM

Q: What about the TGI (NCI-H522 lung) of the same compound?
A: 14.3 µM

Q: And the GI50 (SF-268 CNS)?
A: 1.08 µM

Q: What about the TGI (SF-268 CNS) of the same compound?
A: 22.4 µM

Q: And the GI50 (SK-MEL-5 melanoma)?
A: 0.713 µM

Q: What about the TGI (SK-MEL-5 melanoma) of the same compound?
A: 13.2 µM

Q: And the GI50 (SK-OV-3 ovarian)?
A: 0.394 µM

Q: And the TGI (SK-OV-3 ovarian)?
A: 15.2 µM

Q: What about the GI50 (SR leukemia) of the same compound?
A: 0.25 µM

Q: What about the TGI (SR leukemia) of the same compound?
A: 12.2 µM

Q: Which results are given for `O=C(O[C@H]1CN[C@H](C#Cc2cc3ncnc(Nc4ccc(Cc5ccccc5)cc4)c3s2)C1)N1CCOCC1`?
A: GI50 (K-562 leukemia): 8.44 µM; TGI (K-562 leukemia): > 25 µM; GI50 (M14 melanoma): 6.08 µM; TGI (M14 melanoma): 18.9 µM; GI50 (MALME-3M melanoma): 4.71 µM; TGI (MALME-3M melanoma): > 20.3 µM; GI50 (NCI-H226 lung): 5.01 µM; TGI (NCI-H226 lung): 15.7 µM; GI50 (NCI-H23 lung): 6.35 µM; TGI (NCI-H23 lung): 24.9 µM; GI50 (NCI-H522 lung): 0.482 µM; TGI (NCI-H522 lung): 4.2 µM; GI50 (SF-268 CNS): 3.8 µM; TGI (SF-268 CNS): 10.6 µM; GI50 (SK-MEL-5 melanoma): 4.23 µM; TGI (SK-MEL-5 melanoma): 8.83 µM; GI50 (SK-OV-3 ovarian): 0.033 µM; TGI (SK-OV-3 ovarian): > 25 µM; GI50 (SR leukemia): 11.2 µM; TGI (SR leukemia): > 25 µM

Q: Which GI50 (K-562 leukemia) does the source give for `NC(=O)Cc1ccccc1Oc1nccc(-c2c(-c3ccc(F)cc3)ncn2C2CCNCC2)n1` here?
A: > 25 µM

Q: And the TGI (K-562 leukemia)?
A: > 25 µM

Q: And the GI50 (M14 melanoma)?
A: > 25 µM

Q: And the TGI (M14 melanoma)?
A: > 25 µM

Q: What about the GI50 (MALME-3M melanoma) of the same compound?
A: > 25 µM

Q: And the TGI (MALME-3M melanoma)?
A: > 25 µM

Q: And the GI50 (NCI-H226 lung)?
A: > 25 µM

Q: What about the TGI (NCI-H226 lung) of the same compound?
A: > 25 µM

Q: What about the GI50 (NCI-H23 lung) of the same compound?
A: > 25 µM

Q: What about the TGI (NCI-H23 lung) of the same compound?
A: > 25 µM

Q: And the GI50 (NCI-H522 lung)?
A: > 25 µM

Q: And the TGI (NCI-H522 lung)?
A: > 25 µM

Q: What about the GI50 (SF-268 CNS) of the same compound?
A: > 25 µM

Q: What about the TGI (SF-268 CNS) of the same compound?
A: > 25 µM

Q: And the GI50 (SK-MEL-5 melanoma)?
A: > 25 µM

Q: And the TGI (SK-MEL-5 melanoma)?
A: > 25 µM

Q: What about the GI50 (SK-OV-3 ovarian) of the same compound?
A: > 25 µM

Q: And the TGI (SK-OV-3 ovarian)?
A: > 25 µM

Q: And the GI50 (SR leukemia)?
A: > 25 µM

Q: And the TGI (SR leukemia)?
A: > 25 µM

Q: Which results are given for `S=c1cn[nH]c2ccc(Br)cc12`?
A: TGI (K-562 leukemia): > 100 µM; TGI (M14 melanoma): > 100 µM; TGI (MALME-3M melanoma): 79 µM; TGI (NCI-H226 lung): > 100 µM; TGI (NCI-H23 lung): > 100 µM; TGI (NCI-H522 lung): 91.6 µM; TGI (SF-268 CNS): > 100 µM; TGI (SK-MEL-5 melanoma): > 100 µM; TGI (SK-OV-3 ovarian): > 100 µM; TGI (SR leukemia): > 100 µM

Q: `Cc1nc(NC(=O)COc2cccc(/C=C3\COc4ccccc4C3=O)c2)sc1C` was tested. Which GI50 (K-562 leukemia) did it give?
A: 3.1 µM

Q: And the TGI (K-562 leukemia)?
A: > 100 µM

Q: And the GI50 (M14 melanoma)?
A: 1.83 µM

Q: And the TGI (M14 melanoma)?
A: 3.75 µM

Q: What about the GI50 (MALME-3M melanoma) of the same compound?
A: 1.79 µM

Q: What about the TGI (MALME-3M melanoma) of the same compound?
A: 4.11 µM

Q: And the GI50 (NCI-H226 lung)?
A: 3.32 µM

Q: And the TGI (NCI-H226 lung)?
A: 9.66 µM

Q: And the GI50 (NCI-H23 lung)?
A: 1.92 µM

Q: What about the TGI (NCI-H23 lung) of the same compound?
A: 4.12 µM

Q: What about the GI50 (NCI-H522 lung) of the same compound?
A: 1.89 µM

Q: And the TGI (NCI-H522 lung)?
A: 4.41 µM

Q: And the GI50 (SF-268 CNS)?
A: 1.85 µM

Q: What about the TGI (SF-268 CNS) of the same compound?
A: 3.5 µM

Q: And the GI50 (SK-MEL-5 melanoma)?
A: 1.86 µM

Q: And the TGI (SK-MEL-5 melanoma)?
A: 3.81 µM

Q: And the GI50 (SK-OV-3 ovarian)?
A: 8.97 µM

Q: What about the TGI (SK-OV-3 ovarian) of the same compound?
A: 21.3 µM

Q: And the GI50 (SR leukemia)?
A: 0.872 µM

Q: And the TGI (SR leukemia)?
A: > 100 µM

Q: How did the TGI (K-562 leukemia) turn out when `O=[N+]([O-])c1ccccc1S(=O)(=O)c1ccccc1[N+](=O)[O-]` was run?
A: > 100 µM

Q: What about the TGI (M14 melanoma) of the same compound?
A: > 100 µM

Q: What about the TGI (MALME-3M melanoma) of the same compound?
A: > 100 µM

Q: And the TGI (NCI-H226 lung)?
A: > 100 µM

Q: What about the TGI (NCI-H23 lung) of the same compound?
A: > 100 µM

Q: And the TGI (NCI-H522 lung)?
A: > 100 µM

Q: And the TGI (SF-268 CNS)?
A: > 89.3 µM

Q: What about the TGI (SK-MEL-5 melanoma) of the same compound?
A: > 56.2 µM

Q: What about the TGI (SK-OV-3 ovarian) of the same compound?
A: > 100 µM

Q: What about the TGI (SR leukemia) of the same compound?
A: > 100 µM

Q: What does the source list for `Cn1c(=O)c(Sc2ccccc2F)cc2cnc(NC3CCOCC3)nc21`?
A: GI50 (K-562 leukemia): > 25 µM; TGI (K-562 leukemia): > 25 µM; GI50 (M14 melanoma): > 25 µM; TGI (M14 melanoma): > 25 µM; GI50 (MALME-3M melanoma): > 25 µM; TGI (MALME-3M melanoma): > 25 µM; GI50 (NCI-H226 lung): > 25 µM; TGI (NCI-H226 lung): > 25 µM; GI50 (NCI-H23 lung): > 25 µM; TGI (NCI-H23 lung): > 25 µM; GI50 (NCI-H522 lung): > 25 µM; TGI (NCI-H522 lung): > 25 µM; GI50 (SF-268 CNS): > 25 µM; TGI (SF-268 CNS): > 25 µM; GI50 (SK-MEL-5 melanoma): > 25 µM; TGI (SK-MEL-5 melanoma): > 25 µM; GI50 (SK-OV-3 ovarian): > 25 µM; TGI (SK-OV-3 ovarian): > 25 µM; GI50 (SR leukemia): > 25 µM; TGI (SR leukemia): > 25 µM

Q: `COc1ccccc1/C=C1\CCC(CN(C)C)C1=O` (stereo not given) was tested. Which TGI (K-562 leukemia) did it give?
A: 11.3 µM

Q: What about the TGI (M14 melanoma) of the same compound?
A: 11.1 µM

Q: And the TGI (MALME-3M melanoma)?
A: 16.2 µM

Q: What about the TGI (NCI-H226 lung) of the same compound?
A: 25 µM

Q: And the TGI (NCI-H23 lung)?
A: 25.1 µM

Q: What about the TGI (NCI-H522 lung) of the same compound?
A: 3.56 µM

Q: And the TGI (SF-268 CNS)?
A: 29.7 µM

Q: And the TGI (SK-MEL-5 melanoma)?
A: 30.4 µM

Q: And the TGI (SK-OV-3 ovarian)?
A: 33.7 µM

Q: And the TGI (SR leukemia)?
A: 13 µM

Q: Which GI50 (K-562 leukemia) does the source give for `O=C(Nc1cccc(-n2cc(-c3ccncc3)c(-c3cc(O)cc(Cl)c3)n2)c1)Nc1ccc(Cl)c(Cl)c1` here?
A: 2.56 µM

Q: And the TGI (K-562 leukemia)?
A: > 100 µM

Q: And the GI50 (M14 melanoma)?
A: 1.44 µM

Q: What about the TGI (M14 melanoma) of the same compound?
A: 3.28 µM

Q: And the GI50 (MALME-3M melanoma)?
A: 1.8 µM

Q: What about the TGI (MALME-3M melanoma) of the same compound?
A: 5.48 µM

Q: And the GI50 (NCI-H226 lung)?
A: 2.28 µM

Q: What about the TGI (NCI-H226 lung) of the same compound?
A: 7.16 µM

Q: And the GI50 (NCI-H23 lung)?
A: 2.41 µM

Q: And the TGI (NCI-H23 lung)?
A: 6.29 µM

Q: What about the GI50 (NCI-H522 lung) of the same compound?
A: 1.1 µM

Q: And the TGI (NCI-H522 lung)?
A: 3.14 µM

Q: And the GI50 (SF-268 CNS)?
A: 3.22 µM

Q: And the TGI (SF-268 CNS)?
A: 32.8 µM

Q: And the GI50 (SK-MEL-5 melanoma)?
A: 1.62 µM

Q: And the TGI (SK-MEL-5 melanoma)?
A: 3.04 µM

Q: What about the GI50 (SK-OV-3 ovarian) of the same compound?
A: 3.4 µM

Q: And the TGI (SK-OV-3 ovarian)?
A: 9.43 µM

Q: What about the GI50 (SR leukemia) of the same compound?
A: 1.31 µM

Q: What about the TGI (SR leukemia) of the same compound?
A: 4.24 µM

Q: For `CCC1(O)C(=O)OCc2c1cc1n(c2=O)Cc2c-1nc1ccccc1c2OC` (stereo not given), which TGI (K-562 leukemia) is on record?
A: > 100 µM

Q: And the TGI (M14 melanoma)?
A: 0.445 µM

Q: What about the TGI (MALME-3M melanoma) of the same compound?
A: 25.3 µM

Q: What about the TGI (NCI-H226 lung) of the same compound?
A: 0.12 µM

Q: What about the TGI (NCI-H23 lung) of the same compound?
A: 0.0749 µM

Q: And the TGI (NCI-H522 lung)?
A: 0.984 µM

Q: And the TGI (SF-268 CNS)?
A: 2.31 µM

Q: And the TGI (SK-MEL-5 melanoma)?
A: 0.205 µM

Q: What about the TGI (SK-OV-3 ovarian) of the same compound?
A: 7.47 µM

Q: What about the TGI (SR leukemia) of the same compound?
A: < 0.01 µM
